Laboratory results as given in PubChem BioAssay (NCI).
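All cell lines were grown in 96-well plates and treated with compound for 48 hours. TGI marks complete inhibition of growth.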

Key:
Assay in all cases: NCI-60 cell line screen, 48 h
[1] = test system: MCF7 breast
[2] = test system: MALME-3M melanoma
[3] = test system: SF-295 CNS
[4] = test system: K-562 leukemia
[5] = test system: HCT-15 colon
[6] = test system: UO-31 renal
[7] = test system: HT29 colon
[8] = test system: NCI-H226 lung
[9] = test system: EKVX NSCLC
[10] = test system: 786-0 renal
[11] = test system: OVCAR-5 ovarian
[12] = test system: MDA-N
[13] = test system: CCRF-CEM leukemia
[14] = test system: SF-268 CNS
[15] = test system: SK-MEL-28 melanoma
[16] = test system: M14 melanoma
[17] = test system: OVCAR-3 ovarian
[18] = test system: OVCAR-4 ovarian
[19] = test system: SK-MEL-2 melanoma

Row | SMILES | TGI [1] | TGI [2] | TGI [3] | TGI [4] | TGI [5] | TGI [6] | TGI [7] | TGI [8] | TGI [9] | TGI [10] | TGI [11] | TGI [12] | TGI [13] | TGI [14] | TGI [15] | TGI [16] | TGI [17] | TGI [18] | TGI [19]
1 | C=C(C)C#CC(O)(C(=O)OC1CCN(C)CC1)C(C)C (centres undefined) | > 100 µM | > 100 µM | > 100 µM | > 100 µM | > 100 µM | > 100 µM | > 100 µM | > 100 µM | > 100 µM | > 100 µM | > 100 µM | > 100 µM | > 100 µM | > 100 µM | > 100 µM | > 100 µM | > 100 µM | – | –
2 | Cc1cccc(-n2c(C)nc3ccc(NC4OC(CO)C(O)C(O)C4O)cc3c2=O)c1 (centres undefined) | > 100 µM | > 100 µM | > 100 µM | > 100 µM | > 100 µM | > 100 µM | > 100 µM | > 100 µM | > 100 µM | > 100 µM | > 100 µM | > 100 µM | – | > 100 µM | > 100 µM | – | > 100 µM | > 100 µM | > 100 µM
3 | CC(CN(C)C)C(=O)c1ccccc1C(=O)O (centres undefined) | > 100 µM | 83 µM | > 100 µM | > 100 µM | > 100 µM | > 100 µM | > 100 µM | – | > 100 µM | > 100 µM | > 100 µM | > 100 µM | 30.3 µM | > 100 µM | > 100 µM | 76.6 µM | 54.1 µM | > 100 µM | 46.9 µM
4 | CCCCC1Cc2ccccc2-c2n1c1ccccc1[n+]2C (centres undefined) | > 100 µM | – | > 100 µM | > 100 µM | > 100 µM | > 100 µM | 57.8 µM | > 100 µM | > 100 µM | > 100 µM | > 100 µM | 64.5 µM | > 100 µM | > 100 µM | 91 µM | > 100 µM | > 100 µM | > 100 µM | 35.7 µM
5 | CCN(CC)CCNc1ccc2ncn3c4c(OC)ccc(OC)c4c(=O)c1c23 | 17 µM | 41.8 µM | 29.7 µM | 49.4 µM | 38.5 µM | > 100 µM | – | > 100 µM | 35.6 µM | 70.9 µM | – | 25.4 µM | 27.1 µM | 17.2 µM | 39.2 µM | 34.4 µM | > 100 µM | – | –
6 | O=C(O)c1nc2cc(C(F)(F)F)ccc2nc1Nc1ccc(Cl)c(Cl)c1 | 90.1 µM | 38.7 µM | 31.7 µM | > 100 µM | 24.8 µM | 27.6 µM | 28.8 µM | 34 µM | 42.4 µM | 29.3 µM | 32 µM | 69.2 µM | – | 36.4 µM | – | 26 µM | 26.4 µM | 65.9 µM | 8.25 µM
7 | COC(=O)c1ccccc1/C=C1/Cc2cccc(C)c2C1=O | > 100 µM | > 100 µM | > 100 µM | > 100 µM | > 100 µM | > 100 µM | > 100 µM | > 100 µM | > 100 µM | > 100 µM | > 100 µM | > 100 µM | > 100 µM | > 100 µM | > 100 µM | – | > 100 µM | > 100 µM | –
